Here are results for three compounds from US9562044B2, “2-acylaminothiazole derivative or salt thereof” (ASTELLAS PHARMA INC., priority 2013, dated 2017).

Experiment [1] relates to intravesical pressure in anesthetized rats. The experiment can be described thus: Pelvic nerve electrical stimulation-induced elevation of intravesical pressure in anesthetized rats. The experiment is classed as in vivo, rat. The settings on record: 3 mg/kg intravenous; maximum effect during 1 hour after administration; pre-treatment AUC = 100%; SD female rats. The protocol: Effect on Pelvic Nerve Electrical Stimulation-Induced Elevation of Intravesical Pressure in Anesthetized Rats
As an effect on the nerve stimulation-dependent bladder contraction in vivo, the effect of the Example compound of the present invention in the pelvic nerve electrical stimulation-induced elevation of the intravesical pressure in rats was measured by the following method. That is, using SD female rats (Japan SLC, Inc.), the lower abdomen was incised in the midline under anesthesia with pentobarbital (50 mg/kg ip). The ureter on both sides was ligated and cut, and then a cannula for measuring the intravesical pressure (PE-50) was inserted into the bladder from the external urethral orifice and fixed by a clip. About 200 μL of physiological saline was injected through the cannula inserted into the bladder, the other side was then connected to a pressure transducer, and the intravesical pressure was measured. Under observation using a stereomicroscope, the pelvic nerve near the bladder was isolated and an electrode (Unique Medical) for nerve stimulation was placed. The abdominal cavity was filled with mineral oil (MP BIOMEDICALS). […] After the elevation of the intravesical pressure by electrical stimulation was stabilized three times or more, the test substance (dose of 3 mg/kg) was administered at a volume of 1 mL/kg from a catheter placed in the vein and the effect of the test substance on the elevation of the intravesical pressure was measured for 1 hour. […]
The responses were put into a personal computer through PowerLab (registered trademark) (AD Instruments), and analyzed with LabChart (registered trademark). The AUC of each elevation of the intravesical pressure was calculated. The average value of three values before the treatment with the test substance was set to 100%, and the elevation rate of the intravesical pressure (% of pre) after the treatment with the test substance was calculated. […]

A further experiment has as its system isolated rat bladder. Kind of experiment: Transmural electrical field stimulation-induced contraction of isolated rat bladder. The settings on record: AUC of contractile response, value before treatment = 100%, SD female rat bladder strip, read-out: Enhancement rate of isolated bladder contraction (% of pre). As for the experimental part:
Effects on Transmural Electrical Field Stimulation-Induced Contraction of Isolated Rat Bladder
As an effect on the nerve stimulation-dependent bladder contraction in vitro, the effect of the Example compound of the present invention in the transmural electrical field stimulation-induced contraction of isolated rat bladder was measured by the following method. That is, from the bladder isolated from a Spraque-Dawley (SD) female rat (Japan SLC, Inc.), a longitudinal bladder strip having a width of about 2 mm and a length of about 10 mm was prepared. The prepared bladder strip was suspended in an organ bath filled with 10 mL of a Krebs-Henseleit solution. The Krebs-Henseleit solution was bubbled with 95% O2 and 5% CO2, and kept at 37° C. After stabilization at an initial tension of 1 g, contraction was induced twice with 60 mM KCl. The strip was washed with the Krebs-Henseleit solution and stabilized, and then contraction was induced with transmural electrical field stimulation at 20 V (stimulation frequency of 8 Hz, pulse width of 0.3 msec, and stimulation time of 10 seconds) by an electrical stimulation device (Nihon Kohden Corporation). At an interval of 2 minutes, transmural electrical field stimulation was repeated and the voltage was adjusted to make the contractile amplitude about 50% of the contractile response by 20 V. After stabilization of the contraction by the transmural electrical field stimulation, 10 μL of the test substance (final concentrations of 3 μM, 10 μM, and 30 μM), which had been dissolved in 100% dimethylsulfoxide in advance was added. The test substance was cumulatively administered at the next concentration after the contractile response at a lower concentration had been stabilized. The responses were put into a personal computer through PowerLab (registered trademark) (AD Instruments), and analyzed with LabChart (registered trademark) (AD Instruments). The area under the response of each contractile response (area under curve, AUC) was calculated and the value before the treatment with the test substance was set to 100%. Based on this, the enhancement rate of the isolated bladder contraction (% of pre) after the treatment with the test substance was calculated.
The enhancement rates of the isolated bladder contraction due to several 10 μM Example compounds which are the compounds of the formula (I) are shown in Table 2.

Structures can show the parent of a compound that is named as a salt.

For `CC[C@@H]1CCCN1Cc1sc(NC(=O)c2cnc(N3CCC(C(=O)O)CC3)cn2)nc1-c1cc(F)cc(C(F)(F)F)c1` [Example 115], in experiment [1], the “Elevation rate of intravesical pressure (% of pre)” value (shortened to “Elevation rate … (% of pre)”) is recorded as 131 % of pre. For the same compound, in the experiment with isolated rat bladder, the activity at 10 µM is 121%.

Regarding `C[C@@H]1CCCN1Cc1sc(NC(=O)c2cnc(N3CCC(C(=O)O)CC3)cn2)nc1-c1cc(Cl)cs1` [Example 4, 1-(5-{[4-(4-chloro-2-thienyl)-5-{[(2R)-2-methylpyrrolidin-1-yl]methyl}-1,3-thiazol-2-yl]carbamoyl}pyrazin-2-yl)piperidine-4-carboxylic acid dihydrochloride], the “Elevation rate … (% of pre)” value in experiment [1] is on record as 184 % of pre. Moreover, the activity at 10 µM in the experiment with isolated rat bladder is 180%.

`CC[C@@H]1CCCN1Cc1sc(NC(=O)c2cnc(N3CCC(C(=O)O)CC3)cn2)nc1-c1ccc(OC)c(C(F)(F)F)c1` [Example 156]: the “Elevation rate … (% of pre)” value in experiment [1] was 130 % of pre. In addition, in the experiment on isolated rat bladder, the activity at 10 µM is 135%.
